The series is described as follows: Dissolution comparison of Nα-Nsc-amino acids and Nα-Fmoc-amino acids. The format is physicochemical. Set-up: key: ◯: dissolution; Δ: partial dissolution; X: no dissolution. The following applies: for Dissolved state, Nsc, column B / Dissolved state, Nsc, column A / Dissolved state, Nsc, column D / Dissolved state, Nsc, column C: Nsc-amino acid; for Dissolved state, Nsc, column B / Dissolved state, Nsc, column A / Dissolved state, Fmoc, column B / Dissolved state, Fmoc, column A: 100 mg in 1 ml dichloromethane; for Dissolved state, Nsc, column B / Dissolved state, Nsc, column D / Dissolved state, Fmoc, column B / Dissolved state, Fmoc, column D: heated at 40° C. for 5 minutes, then room temperature 5 minutes; for Dissolved state, Nsc, column A / Dissolved state, Nsc, column C / Dissolved state, Fmoc, column A / Dissolved state, Fmoc, column C: stirring 5 minutes; for Dissolved state, Nsc, column D / Dissolved state, Nsc, column C / Dissolved state, Fmoc, column D / Dissolved state, Fmoc, column C: 15% DMF/DCM; for Dissolved state, Fmoc, column B / Dissolved state, Fmoc, column A / Dissolved state, Fmoc, column D / Dissolved state, Fmoc, column C: Fmoc-amino acid. The protocol:
Since only amino acids fully dissolved in a solvent can be used in acylation reactions, the following tests were performed to find solvent conditions in which amino acids can be completely dissolved.
100 mg of each of Nα-Nsc-amino acids and Nα-Fmoc-amino acids shown in Table 1, below, were precisely weighed and added to two containers added with 1 ml of dichloromethane (hereinafter, referred to as “DCM”), followed by stirring for 5 minutes. The dissolved states of amino acids were observed and are expressed in column A of the following Table 1.
Other amino acids, exclusive of totally dissolved amino acids, were heated in an oven at 40° C. for 5 minutes, and allowed to stand at room temperature for 5 minutes. Their dissolved states are shown in column B.
As such, the undissolved amino acids were dissolved in 15% dimethylformamide (hereinafter, referred to as “DMF”)/DCM in the same manner as in the case of the above column A, and their dissolved states are presented in column C.
Still undissolved amino acids were heated in an oven at 40° C. for 5 minutes, and allowed to stand at room temperature for 5 minutes. Their dissolved states were observed and are shown in column D.

Turning to `CC(C)(C)OCC(NC(=O)OCCS(=O)(=O)c1ccc([N+](=O)[O-])cc1)C(=O)O` (stereo not shown) [Nsc-Ser], the “Dissolved state, Nsc, column B” value is on record as “◯”; the “Dissolved state, Nsc, column A” value is on record as “◯”; the “Dissolved state, Nsc, column D” value is on record as “◯”; the “Dissolved state, Nsc, column C” value was “◯”.

Regarding `O=C(N[C@@H](Cc1ccccc1)C(=O)O)OCCS(=O)(=O)c1ccc([N+](=O)[O-])cc1` [Nsc-Phe], the “Dissolved state, Nsc, column B” value is “X”; the “Dissolved state, Nsc, column A” value is reported as “X”; the “Dissolved state, Nsc, column D” value is listed as “◯”; the “Dissolved state, Nsc, column C” value is recorded as “◯”.

For the compound `CC(C)(C)OC(=O)CCC(NC(=O)OCCS(=O)(=O)c1ccc([N+](=O)[O-])cc1)C(=O)O` (stereo not shown) [Nsc-Glu], the “Dissolved state, Nsc, column B” value is listed as “◯”; the “Dissolved state, Nsc, column A” value is recorded as “◯”; the “Dissolved state, Nsc, column D” value is on record as “◯”; the “Dissolved state, Nsc, column C” value is “◯”.

In the case of `C[C@H](NC(=O)OCCS(=O)(=O)c1ccc([N+](=O)[O-])cc1)C(=O)O` [Nsc-Ala], the “Dissolved state, Nsc, column B” value is “X”; the “Dissolved state, Nsc, column A” value is on record as “X”; the “Dissolved state, Nsc, column D” value is “◯”; the “Dissolved state, Nsc, column C” value is reported as “◯”.

Take `O=C(O)CNC(=O)OCCS(=O)(=O)c1ccc([N+](=O)[O-])cc1` [Nsc-Gly]: the “Dissolved state, Nsc, column B” value is on record as “X”; the “Dissolved state, Nsc, column A” value is listed as “X”; the “Dissolved state, Nsc, column D” value was “◯”; the “Dissolved state, Nsc, column C” value is recorded as “Δ”.

As for `NC(=O)CC[C@H](NC(=O)OCC1c2ccccc2-c2ccccc21)C(=O)O` [Fmoc-Gln, reference compound], the “Dissolved state, Fmoc, column B” value is given as “◯”; the “Dissolved state, Fmoc, column A” value is “◯”; the “Dissolved state, Fmoc, column D” value is on record as “◯”; the “Dissolved state, Fmoc, column C” value was “◯”.

On to `CC(=O)NCSCC(NC(=O)OCC1c2ccccc2-c2ccccc21)C(=O)O` (stereo not shown) [Fmoc-Cys, reference compound], for which the “Dissolved state, Fmoc, column B” value is “X”; the “Dissolved state, Fmoc, column A” value is listed as “X”; the “Dissolved state, Fmoc, column D” value is “◯”; the “Dissolved state, Fmoc, column C” value is listed as “Δ”.

`O=C(O)CNC(=O)OCC1c2ccccc2-c2ccccc21` [Fmoc-Gly, reference compound]: the “Dissolved state, Fmoc, column B” value is “X”; the “Dissolved state, Fmoc, column A” value is on record as “X”; the “Dissolved state, Fmoc, column D” value is given as “◯”; the “Dissolved state, Fmoc, column C” value is recorded as “Δ”.

Take `O=C(N[C@@H](Cc1ccccc1)C(=O)O)OCC1c2ccccc2-c2ccccc21` [Fmoc-Phe, reference compound]: the “Dissolved state, Fmoc, column B” value was “X”; the “Dissolved state, Fmoc, column A” value is given as “X”; the “Dissolved state, Fmoc, column D” value is listed as “◯”; the “Dissolved state, Fmoc, column C” value was “Δ”.

Turning to `CC(C)(C)Oc1ccc(CC(NC(=O)OCC2c3ccccc3-c3ccccc32)C(=O)O)cc1` (stereo not shown) [Fmoc-Tyr, reference compound], the “Dissolved state, Fmoc, column B” value was “◯”; the “Dissolved state, Fmoc, column A” value was “Δ”; the “Dissolved state, Fmoc, column D” value is reported as “◯”; the “Dissolved state, Fmoc, column C” value is recorded as “◯”.

Regarding `CC(C)C[C@@H](NC(=O)OCC1c2ccccc2-c2ccccc21)C(=O)O` [Fmoc-Leu, reference compound], the “Dissolved state, Fmoc, column B” value is recorded as “◯”; the “Dissolved state, Fmoc, column A” value is “Δ”; the “Dissolved state, Fmoc, column D” value is “◯”; the “Dissolved state, Fmoc, column C” value is given as “◯”.

With `O=C(NC(Cc1c[nH]c2ccccc12)C(=O)O)OCC1c2ccccc2-c2ccccc21` (stereo not shown) [Fmoc-Trp, reference compound], the “Dissolved state, Fmoc, column B” value is recorded as “X”; the “Dissolved state, Fmoc, column A” value is recorded as “X”; the “Dissolved state, Fmoc, column D” value was “◯”; the “Dissolved state, Fmoc, column C” value is on record as “◯”.

On to `CC[C@H](C)[C@H](NC(=O)OCC1c2ccccc2-c2ccccc21)C(=O)O` [Fmoc-Iie, reference compound], for which the “Dissolved state, Fmoc, column B” value is recorded as “Δ”; the “Dissolved state, Fmoc, column A” value is “Δ”; the “Dissolved state, Fmoc, column D” value is reported as “◯”; the “Dissolved state, Fmoc, column C” value was “◯”.

Consider `O=C(NC(Cc1cn(C(c2ccccc2)(c2ccccc2)c2ccccc2)cn1)C(=O)O)OCC1c2ccccc2-c2ccccc21` (stereo not shown) [Fmoc-His, reference compound], for which the “Dissolved state, Fmoc, column B” value is “◯”; the “Dissolved state, Fmoc, column A” value is “◯”; the “Dissolved state, Fmoc, column D” value is reported as “◯”; the “Dissolved state, Fmoc, column C” value is listed as “◯”.

Regarding `O=C(O)[C@@H]1CCCN1C(=O)OCC1c2ccccc2-c2ccccc21` [Fmoc-Pro, reference compound], the “Dissolved state, Fmoc, column B” value is “◯”; the “Dissolved state, Fmoc, column A” value was “◯”; the “Dissolved state, Fmoc, column D” value is “◯”; the “Dissolved state, Fmoc, column C” value is listed as “◯”.

`CC(C)C(NC(=O)OCCS(=O)(=O)c1ccc([N+](=O)[O-])cc1)C(=O)O` (stereo not shown) [Nsc-Val]: the “Dissolved state, Nsc, column B” value is listed as “◯”; the “Dissolved state, Nsc, column A” value is “◯”; the “Dissolved state, Nsc, column D” value is “◯”; the “Dissolved state, Nsc, column C” value is “◯”.

`CC(C)[C@H](NC(=O)OCC1c2ccccc2-c2ccccc21)C(=O)O` [Fmoc-Val, reference compound]: the “Dissolved state, Fmoc, column B” value is on record as “X”; the “Dissolved state, Fmoc, column A” value is reported as “X”; the “Dissolved state, Fmoc, column D” value is listed as “◯”; the “Dissolved state, Fmoc, column C” value is “◯”.

Take `CSCC[C@H](NC(=O)OCC1c2ccccc2-c2ccccc21)C(=O)O` [Fmoc-Met, reference compound]: the “Dissolved state, Fmoc, column B” value is on record as “◯”; the “Dissolved state, Fmoc, column A” value is on record as “X”; the “Dissolved state, Fmoc, column D” value is “◯”; the “Dissolved state, Fmoc, column C” value was “◯”.

For `CC(C)(C)OC(=O)NCCCCC(NC(=O)OCCS(=O)(=O)c1ccc([N+](=O)[O-])cc1)C(=O)O` (stereo not shown) [Nsc-Lys], the “Dissolved state, Nsc, column B” value is recorded as “◯”; the “Dissolved state, Nsc, column A” value was “◯”; the “Dissolved state, Nsc, column D” value is on record as “◯”; the “Dissolved state, Nsc, column C” value was “◯”.

On to `CC(C)(C)OCC(NC(=O)OCC1c2ccccc2-c2ccccc21)C(=O)O` (stereo not shown) [Fmoc-Ser, reference compound], for which the “Dissolved state, Fmoc, column B” value is “◯”; the “Dissolved state, Fmoc, column A” value is “◯”; the “Dissolved state, Fmoc, column D” value is recorded as “◯”; the “Dissolved state, Fmoc, column C” value is “◯”.

Take `CC(OC(C)(C)C)C(NC(=O)OCC1c2ccccc2-c2ccccc21)C(=O)O` (stereo not shown) [Fmoc-Thr, reference compound]: the “Dissolved state, Fmoc, column B” value is given as “◯”; the “Dissolved state, Fmoc, column A” value was “◯”; the “Dissolved state, Fmoc, column D” value is on record as “◯”; the “Dissolved state, Fmoc, column C” value is on record as “◯”.

Regarding `O=C(N[C@@H](Cc1c[nH]c2ccccc12)C(=O)O)OCCS(=O)(=O)c1ccc([N+](=O)[O-])cc1` [Nsc-Trp], the “Dissolved state, Nsc, column B” value is “X”; the “Dissolved state, Nsc, column A” value is “X”; the “Dissolved state, Nsc, column D” value was “◯”; the “Dissolved state, Nsc, column C” value is recorded as “Δ”.

Turning to `C[C@H](NC(=O)OCC1c2ccccc2-c2ccccc21)C(=O)O` [Fmoc-Ala, reference compound], the “Dissolved state, Fmoc, column B” value is on record as “X”; the “Dissolved state, Fmoc, column A” value is listed as “X”; the “Dissolved state, Fmoc, column D” value is given as “◯”; the “Dissolved state, Fmoc, column C” value was “Δ”.

Regarding `O=C(NC(Cc1cn(C(c2ccccc2)(c2ccccc2)c2ccccc2)cn1)C(=O)O)OCCS(=O)(=O)c1ccc([N+](=O)[O-])cc1` (stereo not shown) [Nsc-His], the “Dissolved state, Nsc, column B” value is “◯”; the “Dissolved state, Nsc, column A” value is listed as “Δ”; the “Dissolved state, Nsc, column D” value is given as “◯”; the “Dissolved state, Nsc, column C” value is listed as “◯”.

`CC(C)CC(NC(=O)OCCS(=O)(=O)c1ccc([N+](=O)[O-])cc1)C(=O)O` (stereo not shown) [Nsc-Leu]: the “Dissolved state, Nsc, column B” value is reported as “X”; the “Dissolved state, Nsc, column A” value is recorded as “X”; the “Dissolved state, Nsc, column D” value was “◯”; the “Dissolved state, Nsc, column C” value is recorded as “Δ”.

For `CC(OC(C)(C)C)C(NC(=O)OCCS(=O)(=O)c1ccc([N+](=O)[O-])cc1)C(=O)O` (stereo not shown) [Nsc-Thr], the “Dissolved state, Nsc, column B” value is reported as “◯”; the “Dissolved state, Nsc, column A” value is “◯”; the “Dissolved state, Nsc, column D” value was “◯”; the “Dissolved state, Nsc, column C” value is “◯”.

`O=C(O)[C@@H]1CCCN1C(=O)OCCS(=O)(=O)c1ccc([N+](=O)[O-])cc1` [Nsc-Pro]: the “Dissolved state, Nsc, column B” value is listed as “◯”; the “Dissolved state, Nsc, column A” value is listed as “◯”; the “Dissolved state, Nsc, column D” value is given as “◯”; the “Dissolved state, Nsc, column C” value was “◯”.

Regarding `CC(C)(C)Oc1ccc(CC(NC(=O)OCCS(=O)(=O)c2ccc([N+](=O)[O-])cc2)C(=O)O)cc1` (stereo not shown) [Nsc-Tyr], the “Dissolved state, Nsc, column B” value is “◯”; the “Dissolved state, Nsc, column A” value is reported as “◯”; the “Dissolved state, Nsc, column D” value was “◯”; the “Dissolved state, Nsc, column C” value is given as “◯”.

The values above are taken from patent publication US20040192888A1, “Method of preparing peptide with high yield and high purity using2-(4-nitrophenylsulfonyl) ethoxycarbonyl-amino acids” (priority 2001, published 2004).
